Source: ChEMBL document CHEMBL5661967, “Antitumor activity of HKI-272, an orally active, irreversible inhibitor of the HER-2 tyrosine kinase” (Cancer Res, 2004)
Activity calls are given as the source filed them. The calls are words filed in the database; no cut-off is given here.

Tests used:
[1] = molecular target: Cyclin-dependent kinase 4/cyclin D1 (Homo sapiens, UniProt P11802); test: Inhibition of recombinant CDK4/cyclin D1 (unknown origin) using protein as substrate; format: protein-complex assay
[2] = molecular target: Cyclin-dependent kinase 1/cyclin B1 (Homo sapiens, UniProt P06493); test: Inhibition of recombinant CDK1/cyclin B1 (unknown origin) using protein as substrate; format: protein-complex assay
[3] = molecular target: Inhibitor of nuclear factor kappa-B kinase subunit beta (Homo sapiens, UniProt O14920); test: Inhibition of recombinant IKK-2 (unknown origin) using peptide as substrate
[4] = molecular target: Proto-oncogene tyrosine-protein kinase Src (Homo sapiens, UniProt P12931); test: Inhibition of recombinant Src (unknown origin) using peptide as substrate
Homo sapiens = species: Homo sapiens; test: Selectivity ratio of IC50 for recombinant KDR (unknown origin) to IC50 for recombinant N-terminal His6-tagged HER2 cytoplasmic domain (676 to 1255 residues)(unknown origin) expressed in baculovirus infected Sf9 insect cells
[5] = Cytotoxicity against mouse 3T3 cells assessed as inhibition of cell proliferation measured after 2 days by sulforhodamine B assay; format: toxicity, cell-based; conditions: NIH3T3 (3T3) cells
NIH3T3 [6] = test: Antiproliferative activity against mouse 3T3 cells transfected with HER-2 oncogene measured after 2 days by sulforhodamine B assay; format: functional, cell-based; conditions: NIH3T3, 48 h
SK-BR-3 = test: Antiproliferative activity against human SK-BR-3 cells measured after 2 days by sulforhodamine B assay; format: functional, cell-based; conditions: SK-BR-3, 48 h
SW-620 = test: Antiproliferative activity against human SW620 cells measured after 2 days by sulforhodamine B assay; format: functional, cell-based; conditions: SW-620, 48 h
[7] = molecular target: T1, Receptor tyrosine-protein kinase erbB-2 (Homo sapiens, UniProt P04626); test: Inhibition of HER2 autophosphorylation in human BT-474 cells at 1 uM measured after 3 hrs by Western blot analysis relative to control; format: cell-based
[8] = molecular target: T1, Receptor tyrosine-protein kinase erbB-2; test: Irreversible inhibition of HER2 autophosphorylation in human BT-474 cells at 1 uM incubated for 3 hrs followed by compound washout and further incubated for 5 hrs by Western blot analysis relative to control; format: cell-based
[9] = molecular target: Epidermal growth factor receptor (Homo sapiens, UniProt P00533); test: Inhibition of EGF-induced EGFR phosphorylation in human A-431 cells at 1 uM incubated for 3 hrs by Western blot analysis relative to control; format: cell-based
[10] = molecular target: T1, Receptor tyrosine-protein kinase erbB-2; test: Inhibition of [14C]HKI-272 binding to HER2 in human BT-474 cells at 5 uM measured after 15 mins by fluorography; format: cell-based
BT-474 [11] = test: Cell cycle arrest in human BT-474 cells assessed as down regulation of cyclin D1 expression incubated for 12 to 16 hrs by Western blot analysis; format: functional, cell-based
[12] = molecular target: Retinoblastoma-associated protein (Homo sapiens) (UniProt P06400); test: Inhibition of Rb phosphorylation in human BT-474 cells at 1 to 10 nM incubated for 12 to 16 hrs by Western blot analysis; format: cell-based; conditions: dose 1-10 nM, time 12-16 hrs
BT-474 [13] = test: Cell cycle arrest in human BT-474 cells assessed as accumulation of cells at Sub-G1 phase at 0.4 nM measured after 12 to 16 hrs by propidium iodide staining based flow cytometry (reference value: 8%); format: functional; conditions: time 12-16 hrs
BT-474 [14] = test: Cell cycle arrest in human BT-474 cells assessed as accumulation of cells at Sub-G1 phase at 1 nM measured after 12 to 16 hrs by propidium iodide staining based flow cytometry (reference value: 8%); format: functional; conditions: time 12-16 hrs
BT-474 [15] = test: Cell cycle arrest in human BT-474 cells assessed as accumulation of cells at Sub-G1 phase at 2 nM measured after 12 to 16 hrs by propidium iodide staining based flow cytometry (reference value: 8%); format: functional; conditions: time 12-16 hrs
BT-474 [16] = test: Cell cycle arrest in human BT-474 cells assessed as accumulation of cells at S phase at 0.2 nM measured after 12 to 16 hrs by propidium iodide staining based flow cytometry (reference value: 21%); format: functional; conditions: time 12-16 hrs
BT-474 [17] = test: Cell cycle arrest in human BT-474 cells assessed as accumulation of cells at S phase at 0.2 nM measured after 12 to 16 hrs by BrdUrd uptake assay (reference value: 26%); format: functional; conditions: time 12-16 hrs
BT-474 [18] = test: Cell cycle arrest in human BT-474 cells assessed as accumulation of cells at G2/M phase at 1 nM measured after 12 to 16 hrs by propidium iodide staining based flow cytometry (reference value: 11%); format: functional; conditions: time 12-16 hrs
BT-474 [19] = test: Cell cycle arrest in human BT-474 cells assessed as reduction in accumulation of cells at S phase measured after 12 to 16 hrs by BrdUrd uptake assay; format: functional, cell-based
NIH3T3 [20] = test: Antitumor activity against mouse 3T3 cells transfected with HER-2 oncogene implanted in athymic nude mouse assessed as tumor growth inhibition at 20 mg/kg, po administered daily for 10 days via gavage and measured on day 21 relative to control; format: functional; conditions: NIH3T3, 504 h, time 21 day, read-out: TGI
NIH3T3 [21] = test: Antitumor activity against mouse 3T3 cells transfected with HER-2 oncogene implanted in athymic nude mouse assessed as tumor growth inhibition at 10 mg/kg, po administered daily for 10 days via gavage and measured on day 14 relative to control; format: functional; conditions: NIH3T3, 336 h, time 14 day, read-out: TGI
NIH3T3 [22] = test: Antitumor activity against mouse 3T3 cells transfected with HER-2 oncogene implanted in athymic nude mouse assessed as tumor growth inhibition at 40 mg/kg, po administered daily for 10 days via gavage and measured on day 14 relative to control; format: functional; conditions: NIH3T3, 336 h, time 14 day, read-out: TGI
BT-474 [23] = test: Antitumor activity against human BT-474 cells xenografted in athymic nude mouse assessed as tumor growth inhibition at 5 mg/kg, po administered daily for 20 days via gavage and measured on day 21 relative to control; format: functional; conditions: BT-474, 504 h, time 21 day, read-out: TGI
[24] = In vivo inhibition of HER2 autophosphorylation in human BT-474 cells xenografted athymic nude mouse at 40 mg/kg, po administered as single dose via gavage measured after 1 hr by immunoblot analysis relative to control; format: functional
SK-OV-3 [25] = test: Antitumor activity against human SK-OV-3 cells xenografted in po dosed athymic nude mouse assessed as tumor growth inhibition administered daily for 20 days via gavage and measured on day 21; format: functional, organism-based; conditions: dose 10-60 mg/kg, time 21.0 day
SK-OV-3 [26] = test: Antitumor activity against human SK-OV-3 cells xenografted in athymic nude mouse assessed as tumor growth inhibition at 5 mg/kg, po administered daily for 20 days via gavage and measured on day 21 relative to control; format: functional; conditions: SK-OV-3, 504 h, time 21 day, read-out: TGI
SK-OV-3 [27] = test: Antitumor activity against human SK-OV-3 cells xenografted in athymic nude mouse assessed as tumor growth inhibition at 60 mg/kg, po administered daily for 20 days via gavage and measured on day 21 relative to control; format: functional; conditions: SK-OV-3, 504 h, time 21 day, read-out: TGI
MCF7 = test: Antitumor activity against human MCF7 cells xenografted in athymic nude mouse assessed as tumor growth inhibition up to 80 mg/kg, po administered daily for 20 days via gavage and measured on day 28 relative to control; format: functional; conditions: time 28 day
[28] = Toxicity in human SK-OV-3 cells xenografted athymic nude mouse assessed as body weight loss at 10 to 60 mg/kg, po administered daily via gavage for 20 days; format: organism-based; conditions: in vivo, 480 h, dose 10-60 mg/kg, time 20 day

T1 sequence (P04626 whole entry): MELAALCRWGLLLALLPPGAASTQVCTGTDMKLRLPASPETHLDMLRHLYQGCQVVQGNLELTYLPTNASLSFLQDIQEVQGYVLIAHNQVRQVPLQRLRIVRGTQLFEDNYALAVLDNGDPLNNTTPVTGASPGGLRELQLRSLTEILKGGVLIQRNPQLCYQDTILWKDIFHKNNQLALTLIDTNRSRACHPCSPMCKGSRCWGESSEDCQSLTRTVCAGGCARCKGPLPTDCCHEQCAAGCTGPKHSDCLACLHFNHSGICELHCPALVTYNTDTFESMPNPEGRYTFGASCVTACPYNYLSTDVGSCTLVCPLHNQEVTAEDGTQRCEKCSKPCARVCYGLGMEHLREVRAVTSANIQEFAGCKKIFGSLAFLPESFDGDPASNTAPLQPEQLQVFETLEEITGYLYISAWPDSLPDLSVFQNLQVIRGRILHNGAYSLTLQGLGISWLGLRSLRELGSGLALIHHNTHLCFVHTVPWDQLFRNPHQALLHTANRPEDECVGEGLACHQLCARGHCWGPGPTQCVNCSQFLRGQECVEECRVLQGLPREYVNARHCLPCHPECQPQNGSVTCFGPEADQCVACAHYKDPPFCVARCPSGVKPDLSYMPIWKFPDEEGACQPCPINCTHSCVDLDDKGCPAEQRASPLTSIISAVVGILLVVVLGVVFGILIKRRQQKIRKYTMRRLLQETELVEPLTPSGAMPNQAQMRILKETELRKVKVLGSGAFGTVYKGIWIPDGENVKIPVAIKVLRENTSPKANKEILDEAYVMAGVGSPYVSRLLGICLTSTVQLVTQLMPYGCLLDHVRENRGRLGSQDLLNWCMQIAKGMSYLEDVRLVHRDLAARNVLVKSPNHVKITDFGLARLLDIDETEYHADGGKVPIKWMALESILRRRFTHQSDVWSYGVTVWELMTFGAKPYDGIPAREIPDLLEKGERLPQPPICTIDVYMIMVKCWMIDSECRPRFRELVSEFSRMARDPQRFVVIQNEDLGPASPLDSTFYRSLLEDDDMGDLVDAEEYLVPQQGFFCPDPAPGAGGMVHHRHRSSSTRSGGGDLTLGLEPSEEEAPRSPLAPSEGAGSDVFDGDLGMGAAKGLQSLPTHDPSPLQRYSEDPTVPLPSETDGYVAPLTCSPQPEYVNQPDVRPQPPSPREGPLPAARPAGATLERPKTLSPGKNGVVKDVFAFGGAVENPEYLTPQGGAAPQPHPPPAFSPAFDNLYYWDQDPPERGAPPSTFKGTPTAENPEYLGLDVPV
Chain of Cyclin-dependent kinase 1/cyclin B1 (P06493 whole entry): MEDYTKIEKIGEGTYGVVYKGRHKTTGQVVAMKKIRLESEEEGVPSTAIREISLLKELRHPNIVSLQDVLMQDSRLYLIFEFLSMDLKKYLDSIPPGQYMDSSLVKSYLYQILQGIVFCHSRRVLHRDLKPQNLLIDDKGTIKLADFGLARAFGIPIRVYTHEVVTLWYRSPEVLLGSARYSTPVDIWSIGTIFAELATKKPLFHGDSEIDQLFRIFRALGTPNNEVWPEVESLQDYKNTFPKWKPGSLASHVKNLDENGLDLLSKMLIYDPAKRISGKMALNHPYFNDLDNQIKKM
Chain of Cyclin-dependent kinase 1/cyclin B1 (P14635 whole entry, further chain): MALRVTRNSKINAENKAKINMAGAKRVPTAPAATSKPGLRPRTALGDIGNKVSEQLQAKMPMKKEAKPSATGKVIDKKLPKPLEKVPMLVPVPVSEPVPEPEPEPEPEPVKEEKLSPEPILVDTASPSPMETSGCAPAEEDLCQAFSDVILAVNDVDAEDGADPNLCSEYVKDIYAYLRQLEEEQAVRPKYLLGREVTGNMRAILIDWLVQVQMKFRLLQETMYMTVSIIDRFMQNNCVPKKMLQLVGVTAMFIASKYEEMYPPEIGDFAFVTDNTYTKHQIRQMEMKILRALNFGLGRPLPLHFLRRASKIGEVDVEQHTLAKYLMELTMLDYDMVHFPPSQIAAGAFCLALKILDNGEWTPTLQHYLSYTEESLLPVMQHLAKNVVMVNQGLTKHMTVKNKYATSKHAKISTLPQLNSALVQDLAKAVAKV
Chain of Retinoblastoma-associated protein (Homo sapiens) (P06400 whole entry): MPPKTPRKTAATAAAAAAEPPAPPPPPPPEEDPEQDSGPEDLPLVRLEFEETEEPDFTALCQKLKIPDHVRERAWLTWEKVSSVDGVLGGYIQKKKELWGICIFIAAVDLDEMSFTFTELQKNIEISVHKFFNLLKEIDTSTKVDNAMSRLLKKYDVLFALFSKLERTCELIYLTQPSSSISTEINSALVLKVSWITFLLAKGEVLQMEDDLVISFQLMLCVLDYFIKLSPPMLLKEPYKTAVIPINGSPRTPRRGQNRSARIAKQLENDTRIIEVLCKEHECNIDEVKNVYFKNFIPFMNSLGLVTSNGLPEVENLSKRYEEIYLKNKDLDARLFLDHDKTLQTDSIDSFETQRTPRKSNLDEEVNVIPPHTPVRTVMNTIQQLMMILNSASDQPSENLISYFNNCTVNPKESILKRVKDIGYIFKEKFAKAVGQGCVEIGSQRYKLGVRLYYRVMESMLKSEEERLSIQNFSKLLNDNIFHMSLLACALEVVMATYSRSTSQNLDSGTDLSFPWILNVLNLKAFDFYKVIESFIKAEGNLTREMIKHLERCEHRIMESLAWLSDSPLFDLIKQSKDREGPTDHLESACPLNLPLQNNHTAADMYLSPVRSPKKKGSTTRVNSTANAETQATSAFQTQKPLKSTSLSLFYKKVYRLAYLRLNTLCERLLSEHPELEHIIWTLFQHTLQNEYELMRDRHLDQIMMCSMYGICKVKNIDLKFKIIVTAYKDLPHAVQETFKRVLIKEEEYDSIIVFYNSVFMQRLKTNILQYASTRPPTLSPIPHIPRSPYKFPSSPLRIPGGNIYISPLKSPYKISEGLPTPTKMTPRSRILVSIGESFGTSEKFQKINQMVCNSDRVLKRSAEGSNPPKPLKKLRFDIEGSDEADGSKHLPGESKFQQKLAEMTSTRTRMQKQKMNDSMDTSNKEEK
Chain of Epidermal growth factor receptor (P00533 whole entry): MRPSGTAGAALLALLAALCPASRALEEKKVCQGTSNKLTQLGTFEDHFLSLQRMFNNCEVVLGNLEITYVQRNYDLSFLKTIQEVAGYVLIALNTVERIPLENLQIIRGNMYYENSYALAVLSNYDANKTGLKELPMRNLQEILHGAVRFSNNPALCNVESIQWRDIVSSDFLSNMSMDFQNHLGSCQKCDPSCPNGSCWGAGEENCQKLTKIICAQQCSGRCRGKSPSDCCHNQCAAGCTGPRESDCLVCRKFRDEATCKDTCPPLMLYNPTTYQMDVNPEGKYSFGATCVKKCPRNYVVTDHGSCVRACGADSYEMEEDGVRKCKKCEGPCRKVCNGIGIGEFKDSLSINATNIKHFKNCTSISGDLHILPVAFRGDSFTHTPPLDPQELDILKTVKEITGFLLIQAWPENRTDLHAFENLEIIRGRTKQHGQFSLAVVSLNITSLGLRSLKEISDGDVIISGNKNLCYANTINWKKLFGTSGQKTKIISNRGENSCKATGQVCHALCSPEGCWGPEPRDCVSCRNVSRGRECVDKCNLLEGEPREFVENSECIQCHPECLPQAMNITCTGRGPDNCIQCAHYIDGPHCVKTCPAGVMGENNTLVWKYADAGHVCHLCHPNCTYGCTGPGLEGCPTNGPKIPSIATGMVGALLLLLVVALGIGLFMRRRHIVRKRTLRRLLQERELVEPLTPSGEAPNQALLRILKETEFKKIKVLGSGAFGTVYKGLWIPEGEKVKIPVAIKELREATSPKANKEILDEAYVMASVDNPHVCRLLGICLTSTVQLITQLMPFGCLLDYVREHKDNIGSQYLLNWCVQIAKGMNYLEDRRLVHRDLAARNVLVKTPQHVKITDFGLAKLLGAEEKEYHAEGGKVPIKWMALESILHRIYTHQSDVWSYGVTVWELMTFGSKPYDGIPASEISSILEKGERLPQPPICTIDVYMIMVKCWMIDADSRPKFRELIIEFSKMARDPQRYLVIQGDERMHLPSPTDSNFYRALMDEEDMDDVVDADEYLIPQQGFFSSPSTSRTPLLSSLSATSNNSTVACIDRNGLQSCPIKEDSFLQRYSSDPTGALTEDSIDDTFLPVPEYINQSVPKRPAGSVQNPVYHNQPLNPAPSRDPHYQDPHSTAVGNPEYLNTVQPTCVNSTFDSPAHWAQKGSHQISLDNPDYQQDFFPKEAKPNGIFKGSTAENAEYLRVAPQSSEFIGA
Chain of Proto-oncogene tyrosine-protein kinase Src (P12931 2-536 limits assumed): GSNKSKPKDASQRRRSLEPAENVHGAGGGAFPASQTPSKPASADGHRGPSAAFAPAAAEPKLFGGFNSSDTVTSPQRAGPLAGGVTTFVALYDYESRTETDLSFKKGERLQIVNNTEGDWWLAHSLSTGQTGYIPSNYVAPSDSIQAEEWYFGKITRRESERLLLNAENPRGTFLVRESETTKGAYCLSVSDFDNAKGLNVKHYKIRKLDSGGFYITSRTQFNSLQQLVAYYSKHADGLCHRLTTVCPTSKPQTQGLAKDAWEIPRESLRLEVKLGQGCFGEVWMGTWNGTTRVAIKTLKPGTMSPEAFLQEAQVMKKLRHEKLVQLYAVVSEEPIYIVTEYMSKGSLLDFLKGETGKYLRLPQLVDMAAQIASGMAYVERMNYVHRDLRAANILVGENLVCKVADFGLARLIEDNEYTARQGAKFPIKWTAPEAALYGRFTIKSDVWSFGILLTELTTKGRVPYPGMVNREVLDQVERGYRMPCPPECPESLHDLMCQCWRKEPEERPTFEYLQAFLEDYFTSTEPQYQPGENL

COc1cc2ncc(C#N)c(Nc3ccc(OCc4ccccn4)c(Cl)c3)c2cc1NC(=O)/C=C/CN(C)C
IC50 [1]: > 50000 nM | IC50 [2]: > 18000 nM | IC50 [3]: > 9000 nM | IC50 [4]: 1400 nM | Ratio IC50 (Homo sapiens): 14 | IC50 at 2 days [5]: 700 nM | IC50 (NIH3T3 [6]): 3 nM | IC50 (SK-BR-3): 2 nM | IC50 (SW-620): 690 nM | inhibition [7]: 98% | inhibition [8]: 97% | inhibition [9]: > 99% | inhibition [10]: Active | IC50 (BT-474 [11]): 9 nM | inhibition [12]: Active | Activity (BT-474 [13]): 11% | Activity (BT-474 [14]): 7% | Activity (BT-474 [15]): 11% | Activity (BT-474 [16]): 16% | Activity (BT-474 [17]): 18% | Activity (BT-474 [18]): 14% | IC50 (BT-474 [19]): 2 nM | inhibition in vivo at 20 mg/kg (NIH3T3 [20]): 53% | inhibition in vivo at 10 mg/kg (NIH3T3 [21]): 34% | inhibition in vivo at 40 mg/kg (NIH3T3 [22]): 98% | inhibition in vivo at 5 mg/kg (BT-474 [23]): 70% | inhibition in vivo at 40 mg/kg [24]: 84% | TGI (SK-OV-3 [25]): Dose-Dependent Effect | inhibition in vivo at 5 mg/kg (SK-OV-3 [26]): 31% | inhibition in vivo at 60 mg/kg (SK-OV-3 [27]): 85% | TGI (MCF7): 28% | Activity [28]: Non-Toxic
